Data taken from US20260027078A1, “Cyclopropane Fatty Acid Modulators Of Peroxisome Proliferator-Activated Receptors” (The Regents of the University of California, priority 2022, published 2026).

Tested on: Angptl4 mRNA expression in 3T3-L1 cells
Assay: Angptl4 mRNA expression (RT-qPCR) in 3T3-L1 cells
Format: cell-based, murine
Details: antagonist 0, 0.1, 1 and 10 μM, against GW7647, GW501516 or rosiglitazone respectively
Method: To study the effect of CpFAs on the regulation of Angptl4 expression, Angptl4 mRNA expression levels were quantified by real-time qPCR in cultured murine 3T3-L1 cells. […] FIG. 7A-C show a dose-dependent response to representative CpFAs in murine 3T3-L1 cells.
3T3-L1 cell culture and PPAR activation: 3T3-LI preadipocytes were cultured in growth medium (high glucose Dulbecco's Modified Eagle Medium (DMEM) containing 10% calf serum (CS), 1× Pencillin/Streptomycin, and 1× Glutamax) and seeded in multi-well (12-or 24-well) plates. PPAR specificity of gene target activation was determined in 3T3-L1 preadipocytes using well-described agonists and antagonists for PPAR-α, PPAR-δ, or PPAR-γ. On the day of treatment, preadipocytes were serum starved in 0.25% CS in growth medium for 2-4 hours. Cells were pretreated with increasing concentrations (0, 0.1, 1 and 10 μM) of PPAR antagonists (GW6471 for PPAR-α, GSK3787 for PPARδ, and T0070907 for PPARγ) in serum starve medium. After 1 hour, selective PPAR agonists were added (GW7647 (PPAR-α), GW501516 (PPAR-δ), and rosiglitazone (PPAR-γ)) and incubated for 24 hours. Lysates were collected for RNA extraction. […] CpFA treatments (final concentrations of 37.5, 75, and 150 μM) were prepared in 0.25% serum starve media plus 3% BSA, followed by heating (55° C.) and sonicating for 30 minutes. Treatments were allowed to cool to 37° C. and then added to 3T3-L1 preadipocytes and incubated for 24 hours. Lysates for RNA isolation were collected.
Angptl4 expression analyses: RNA was isolated from cell lysates using Qiagen 96 Total RNA kit. cDNA was synthesized and plated in triplicates in 384-well plates. RT-qPCR was performed using TaqMan Fast-Advanced master mix and TaqMan reagents and primers (18S, rplp0, angplt4) and analyzed using a Thermo Fisher Scientific QuantStudio 6 Flex PCR system. Relative gene expression was analyzed using the fold difference algorithm (2∧(−ΔΔCt)) using the geomean of 2 housekeeping genes (18S, RPLPO) compared to relevant vehicle control.

| Structure (SMILES) | reversal of synthetic PPAR agonist activity on Angptl4 mRNA expression |
| --- | --- |
| O=C(Nc1ccncc1)c1cc([N+](=O)[O-])ccc1Cl [T0070907] | concentration-dependent ability |
| O=C(NCCS(=O)(=O)c1ccc(C(F)(F)F)cn1)c1ccc(Cl)cc1 [GSK3787] | concentration-dependent ability |
| CCC(=O)NC[C@H](Cc1ccc(OCCc2nc(-c3ccccc3)oc2C)cc1)N/C(C)=C\C(=O)c1ccc(C(F)(F)F)cc1 [GW6471] | concentration-dependent ability |
